According to patent US20080187568A1, “Polymerization with precipitation of proteins for elution in physiological solution” (priority 2007, published 2008):
Like-named read-outs stand apart in the source and are kept apart here.

Tests used:
[1] = pH 9.5
Description: (§1) 0.68 grams 4 arm-n-hydroxysuccinimide ester of polyethylene glycol and carboxymethylene-butyric acid, average molecular weight 10000 Daltons (Shearwater 4 arm CM-HBA-NS-10K) is dissolved in 2.82 g 0.01M phosphate buffer at pH 4.0 and is sterile filtered. Solution B is prepared by dissolving 0.025 grams trilysine and 10 mg bovine fibrinogen (purchased from Sigma Chemicals) in 3.47 g 0.1M borate buffer at pH 9.5 with 0.1 mg/mL methylene blue for visualization. 1 ml of solution A and B are mixed to promote condensation polymerization. Trilysine and PEG-NHS ester react to form a crosslinked hydrogel.
(§2) 1.41 grams 4 arm-n-hydroxysuccinimide ester of polyethylene glycol carboxymethylene-butyric acid, average molecular weight 10000 Daltons (Shearwater 4 arm CM-HBA-NS-10K) and 100 mg of Bone Morphogenetic Protein 2 (BMP-2 protein, recombinant, Sigma catalog B3555) are mixed in a solid state as lyophilized powders and are dissolved/suspended in 2.96 ml 0.1 M HCl just prior to use. Solution B is prepared by dissolving 0.06 grams dilysine (purchased from Sigma Chemicals) in 7.2 g 0.1M borate buffer at pH 9.5 with 0.1 mg/mL methylene blue for visualization. 1 ml of solution A and B are mixed to promote condensation polymerization between dilysine and PEG-NHS ester. Dilysine and PEG-NHS ester react to form a crosslinked hydrogel. HCl is neutralized by borate buffer to form a neutral/basic solution medium.
(§3) 1.37 grams 4 arm-n-hydroxysuccinimide ester of polyethylene glycol carboxymethylene-butyric acid, average molecular weight 10000 Daltons (Shearwater 4 arm CM-HBA-NS-10K) is dissolved in 5.64 g 0.01M phosphate buffer at pH 4.0 and is sterile filtered. Solution B is prepared by dissolving 0.050 grams trilysine and 100 mg paclitaxel in 6.94 g 0.1M borate buffer at pH 9.5 with 0.5 mg/mL methylene blue for visualization. […] Trilysine and PEG-NHS ester react to form a crosslinked hydrogel.

[2] = Solubility / precipitation of the agent in hydrogel precursor solutions
Description: as §1, §2, §3

[3] = cited from earlier work

Compound | solubility at pH 4 [3] | solubility at pH 7 [3] | solubility at pH 10 [3] | further results
Cc1c(C)c2c(c(C)c1O)CC[C@@](C)(CCC[C@H](C)CCC[C@H](C)CCCC(C)C)O2 [vitamin E, alpha-Tocopherol] |  |  |  | solubility in borate buffer [1]: insoluble
Fibrinogen |  |  |  | precipitation on mixing with PEG-NHS ester solution ([2]; fibrinogen in trilysine solution mixed with PEG-NHS ester solution): precipitated
COc1c(N2C[C@@H]3CCCN[C@@H]3C2)c(F)cc2c(=O)c(C(=O)O)cn(C3CC3)c12 [Moxifloxacin] | 11 g/L | 0.13 g/L | 0.14 g/L | 
CC(=O)O[C@H]1C(=O)[C@@]2(C)[C@H]([C@H](OC(=O)c3ccccc3)[C@]3(O)C[C@H](OC(=O)[C@H](O)[C@@H](NC(=O)c4ccccc4)c4ccccc4)C(C)=C1C3(C)C)[C@]1(OC(C)=O)CO[C@@H]1C[C@@H]2O [paclitaxel] |  |  |  | solubility in borate buffer ([2]; 0.1M borate buffer at pH 9.5 (solution B)): insoluble
CC(C)(C)NC[C@H](O)COc1nsnc1N1CCOCC1 [Timolol] | 1000 g/L | 160 g/L | 2.4 g/L | 
CO[C@H]1/C=C/O[C@@]2(C)Oc3c(C)c(O)c4c(O)c(c(/C=N/N5CCN(C)CC5)c(O)c4c3C2=O)NC(=O)/C(C)=C\C=C\[C@H](C)[C@H](O)[C@@H](C)[C@@H](O)[C@@H](C)[C@H](OC(C)=O)[C@@H]1C [Rifampicin, rifampicin] | 1.6 g/L | 0.16 g/L | 1000 g/L | 
